Patent publication US6782895B2, “Compositions comprising at least one hydroxide compound and at least one complexing agent, and methods for using the same” (L'Oreal, S.A., priority 2001, dated 2004)
Counter-ions that a name gives are not always drawn. Like-named read-outs stand apart in the source and are kept apart here. Each block holds one compound with its values, some of them ahead of it.

Assays:
[1] = Relaxing efficiency (% RE) of hair swatch after treatment, 24 hours at 90% RH
Experimental: A naturally kinky hair swatch was relaxed using a composition comprising at least one hydroxide composition comprising at least one hydroxide compound and at least one activating composition comprising at least one complexing agent according to the present invention. The relaxed hair swatch was then rinsed, shampooed, and then placed in the humidity chamber at 90% Relative Humidity (% RH) for 24 hours. The percent Relaxing Efficiency (% RE) is defined as:
Lf=length of the relaxed hair after 24 hours at 90% RH
Lt=length of the hair at the straight configuration
This mucic acid sodium salt slurry was mixed with 6 g of a 7% calcium hydroxide cream. The calcium hydroxide cream contained the following ingredients by weight, relative to the total weight of the cream:
The mixture of mucic acid sodium salt slurry and calcium hydroxide cream was applied to naturally kinky hair for 30 minutes. The treated hair was shampooed and then placed in a humidity chamber at 90% RH for 24 hours.

Solubility = assay type: physicochemical
[2] = for Appearance / pH: 3 g VERSENE 220 in 97 g water
Experimental: The present invention also provides for a simple screening test, which may be used to determine the applicability of a complexing agent for use as the at least one complexing agent in the lanthionizing compositions of the present invention.
A screening test to determine the applicability of a complexing agent for use in the lanthionizing compositions of the present invention was carried out.

[3] = Generation of hydroxide ions from mucic acid sodium salt slurry and calcium hydroxide (pH measurement); assay type: physicochemical; conditions: 7 g mucic acid + 2.66 g sodium hydroxide slurry
Experimental: An incremental amount of calcium hydroxide was then added slowly to the slurry of mucic acid sodium salt, and the pH was measured.

solubility in organic solvents (Solubility; most organic solvents, for example alcohols and ethers): insoluble
solubility in water (salt form) (Solubility; water at high pH): about 0.7%
Structure (SMILES): O=C(O)C(O)C(O)C(O)C(O)C(=O)O (stereo not shown) [Mucic Acid, 1,2,3,4-tetrahydroxy-1,4-butane dicarboxylic acid]
% RE ([1]; curly hair, 6 g 7% calcium hydroxide cream, 1:0.7 molar ratio calcium hydroxide:mucic acid, 2 g water in mucic acid salt slurry): 42%
% RE ([1]; curly hair, 6 g 7% calcium hydroxide cream, 1:0.7 molar ratio calcium hydroxide:mucic acid, 3 g water in mucic acid salt slurry): 88%
% RE ([1]; curly hair, 6 g 7% calcium hydroxide cream, 1:0.7 molar ratio calcium hydroxide:mucic acid, 4 g water in mucic acid salt slurry): 95%
% RE ([1]; curly hair, 6 g 7% calcium hydroxide cream, 1:0.7 molar ratio calcium hydroxide:mucic acid, 5 g water in mucic acid salt slurry): 98%
% RE ([1]; curly hair, 6 g 7% calcium hydroxide cream, 1:0.7 molar ratio calcium hydroxide:mucic acid, 6 g water in mucic acid salt slurry): 99%
% RE ([1]; naturally kinky hair, 30 minutes, 6 g 7% Ca(OH)2 cream, 0.36 g mucic acid, 0.27 g 50% NaOH, 3 g water, molar ratio calcium hydroxide:mucic acid 1:0.3): 54%
% RE ([1]; naturally kinky hair, 30 minutes, 6 g 7% Ca(OH)2 cream, 0.48 g mucic acid, 0.37 g 50% NaOH, 3 g water, molar ratio calcium hydroxide:mucic acid 1:0.4): 81%
% RE ([1]; naturally kinky hair, 30 minutes, 6 g 7% Ca(OH)2 cream, 0.60 g mucic acid, 0.46 g 50% NaOH, 3 g water, molar ratio calcium hydroxide:mucic acid 1:0.5): 80%
% RE ([1]; naturally kinky hair, 30 minutes, 6 g 7% Ca(OH)2 cream, 0.84 g mucic acid, 0.64 g 50% NaOH, 3 g water, molar ratio calcium hydroxide:mucic acid 1:0.7): 86%
% RE ([1]; naturally kinky hair, 30 minutes, 6 g 7% Ca(OH)2 cream, 1.19 g mucic acid, 0.9 g 50% NaOH, 3 g water, molar ratio calcium hydroxide:mucic acid 1:1): 21%

Structure (SMILES): O=C([O-])CN(CCN(CC(=O)[O-])CC(=O)[O-])CC(=O)[O-].[Na+].[Na+].[Na+].[Na+] [Na4EDTA, tetrasodium EDTA]
amount of Ca(OH)2 dissolved in the solution at the end of the reaction ([2]; 3 g VERSENE 220 (0.0066 moles) in 97 g water): 0.60 g
Appearance ([2]; 0 g Ca(OH)2 added): Clear
pH ([2]; 0 g Ca(OH)2 added): 11.62
Appearance ([2]; 0.20 g Ca(OH)2 added): Clear
pH ([2]; 0.20 g Ca(OH)2 added): 13.32
Appearance ([2]; 0.40 g Ca(OH)2 added): Clear
pH ([2]; 0.40 g Ca(OH)2 added): 13.52
Appearance ([2]; 0.60 g Ca(OH)2 added): Clear
pH ([2]; 0.60 g Ca(OH)2 added): 13.59
Appearance ([2]; 0.65 g Ca(OH)2 added): Cloudy
pH ([2]; 0.65 g Ca(OH)2 added): 13.63

pH ([3]; 0.0 g calcium hydroxide added): 12.39
pH ([3]; 0.2 g calcium hydroxide added): 13.02
pH ([3]; 0.4 g calcium hydroxide added): 13.32
pH ([3]; 0.6 g calcium hydroxide added): 13.46
pH ([3]; 0.8 g calcium hydroxide added): 13.51
pH ([3]; 1.0 g calcium hydroxide added): 13.53
pH ([3]; 1.2 g calcium hydroxide added): 13.55
observation upon mixing with calcium hydroxide (Solubility; mucic acid sodium salt mixed with calcium hydroxide): precipitation was observed
Structure (SMILES): O=C(O)[C@@H](O)[C@H](O)[C@H](O)[C@@H](O)C(=O)O [mucic acid sodium salt]
